Here are results for eleven compounds from US8299073B2, “P38 MAP kinase inhibitors” (Respivert Ltd., priority 2008, dated 2012).

Bounds are passed on as bounds.

The target of series [1] is T1, recombinant, phosphorylated p38 MAPK gamma (MAPK12:Millipore) (Homo sapiens, UniProt P53778).
T1 construct: purchased Millipore
T1 sequence (P53778 1-367): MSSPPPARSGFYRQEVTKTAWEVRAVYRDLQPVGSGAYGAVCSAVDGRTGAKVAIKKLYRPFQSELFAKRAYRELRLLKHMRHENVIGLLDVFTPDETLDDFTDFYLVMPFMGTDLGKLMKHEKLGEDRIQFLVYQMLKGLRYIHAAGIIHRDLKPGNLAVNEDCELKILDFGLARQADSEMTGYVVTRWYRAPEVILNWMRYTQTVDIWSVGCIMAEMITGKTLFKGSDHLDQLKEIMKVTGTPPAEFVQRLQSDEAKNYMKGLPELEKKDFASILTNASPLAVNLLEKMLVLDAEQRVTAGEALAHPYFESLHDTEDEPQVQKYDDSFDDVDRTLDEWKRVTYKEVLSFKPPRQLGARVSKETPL
Description: Enzyme inhibition assay (FRET, Z-LYTE), p38 MAPK gamma. Particulars: read-out: IC50 values P38γ enzyme. It counts as biochemical.
Description: The enzyme inhibitory activity of compound was determined by fluorescence resonance energy transfer (FRET) using synthetic peptides labelled with both donor and acceptor fluorophores (Z-LYTE, Invitrogen). Briefly, recombinant, phosphorylated p38 MAPK gamma (MAPK12:Millipore) was diluted in HEPES buffer, mixed with compound at desired final concentrations and incubated for two hours at room temperature. The FRET peptide (2 μM) and ATP (100 uM) were next added to the enzyme/compound mixture and incubated for one hour. Development reagent (protease) was added for one hour prior to detection in a fluorescence microplate reader. The site-specific protease only cleaves non-phosphorylated peptide and eliminates the FRET signal. Phosphorylation levels of each reaction were calculated using the ratio of coumarin emission (donor) over fluorescein emission (acceptor) with high ratios indicating high phosphorylation and low ratios, low phosphorylation levels.

Series [2] has as its system LPS-induced TNFα release in THP-1 cells. Description: LPS-induced TNF alpha release in THP-1 cells. The series is classed as cell-based. Particulars: Homo sapiens, THP-1; LPS-induced TNFα release; read-out: IC50 values THP-1 cells.
Description: THP-1, human monocytic cell line, was also used for this assay. THP-1 cells were stimulated with 1 μg/ml of LPS (from E. coli: O111:B4, Sigma) for 4 hrs, and the supernatant collected for determination of TNFα concentration.
THP-1 cells, a human monocytic cell line, were stimulated with 1 μg/ml of LPS (from E. coli; O111:B4, Sigma) for 4 hr and the supernatant collected for determination of TNFα concentration by sandwich ELISA (Duo-set, R&D systems). The inhibition of TNFα production was calculated at each concentration by comparison with vehicle control.
Series [3] deals with T2, p38 MAPK alpha (MAPK14: Invitrogen) (Homo sapiens, UniProt Q16539).
T2 construct: purchased Invitrogen
T2 sequence (Q16539 whole entry): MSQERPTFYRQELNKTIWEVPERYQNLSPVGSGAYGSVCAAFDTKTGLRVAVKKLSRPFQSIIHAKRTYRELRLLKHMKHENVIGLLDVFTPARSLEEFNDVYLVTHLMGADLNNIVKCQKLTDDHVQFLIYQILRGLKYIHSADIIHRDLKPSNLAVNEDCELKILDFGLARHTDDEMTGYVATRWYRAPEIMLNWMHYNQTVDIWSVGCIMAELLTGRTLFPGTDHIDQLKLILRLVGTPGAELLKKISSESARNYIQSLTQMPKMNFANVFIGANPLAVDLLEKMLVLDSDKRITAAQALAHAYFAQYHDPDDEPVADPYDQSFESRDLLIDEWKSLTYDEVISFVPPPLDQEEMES
Description: Enzyme inhibition assay (FRET, Z-LYTE), p38 MAPK alpha, via activation of MAPKAP-K2. Particulars: read-out: IC50 values p38α enzyme. The series is classed as biochemical.

Series [4] relates to LPS-induced TNFα release in differentiated U937 cells. Description: LPS-induced TNF alpha release in differentiated U937 cells. The series is classed as cell-based. Particulars: Homo sapiens; read-out: R-EC50 values d-U937 cells.
Description: U937 cells, human monocytic cell line, were differentiated to macrophage-type cells by incubation with phorbol myristate acetate (PMA; 100 ng/ml) for 48 to 72 hours. Where appropriate, cells were pre-incubated with final concentrations of compound for 2 hrs. Cells were then stimulated with 0.1 μg/mL of LPS (from E. coli: O111:B4, Sigma) for 4 hrs, and the supernatant collected for determination of TNFα concentration by sandwich ELISA (Duo-set, R&D systems).
The test system of series [5] is Differentiated U937 cells. Description: MTT assay (loss of cell viability). It counts as cell-based, human. Particulars: loss of cell viability, 10 ug/ml. In general terms: Tetrazolium assays rely on reduction of a dye to a coloured formazan, in cell work by metabolically active cells.
Description: Differentiated U937 cells were pre-incubated with compound for 4 hrs in 5% FCS or 10% FCS for 24 hrs and 72 hr. The supernatant was replaced with 200 ul of new media and 10 μL of MTT stock solution (5 mg/mL) added to each well. After 1 hr incubation, the media were removed, 200 μL of DMSO added to each well and the plates were shaken lightly for 1 hr prior to reading the absorbance at 550 nm.
The percentage loss of cell viability was calculated for each well relative to vehicle (0.5% DMSO)-treatment. Consequently an apparent increase in cell viability for drug treatment relative to vehicle is tabulated as a negative percentage.
The subject of series [6] is ovalbumin-mediated lung function changes (sGaw). Description: Ovalbumin challenge/parainfluenza infection model. It counts as in vivo, Dunkin-Hartley guinea-pigs. Particulars: nebulised, 1.5 mg per day; sensitized animals treated with PIV3 medium.
The subject of series [7] is neutrophil and macrophage accumulation into airways. Description: Cigarette smoke model. It counts as in vivo, A/J mice. Particulars: 50 μg/ml (35 μl, bid, in); cigarette smoke exposed mice. Here is the method:
A/J mice (males, 5 weeks old) were exposed to cigarette smoke (4% cigarette smoke, diluted with compressed air) for 30 min/day for 11 days using a Tobacco Smoke Inhalation Experiment System for small animals (Model SIS-CS; Sibata Scientific Technology, Tokyo, Japan). Test substances were given intra-nasally (35 μl of solution in 50% DMSO/PBS) and therapeutically twice daily for 3 days after the final cigarette smoke exposure. Twelve hours after the last dosing, animals were anesthetized, the trachea cannulated and bronchoalveolar lavage fluid (BALF) was collected. […] The results are shown in FIG. 3 for activated alveolar macrophages and in FIG. 4 for neutrophils. Data for cell numbers are shown as the mean±SEM. The cigarette smoke model used for this study is reported as a corticosteroid refractory system, ([…]. et al., (2008); J. Pharmacol. Exp.

As for `COCCOCCSCC(=O)Nc1cc(COc2ccc(NC(=O)Nc3cc(C(C)(C)C)nn3-c3ccc(C)cc3)c3ccccc23)ccn1` [Example 30, N-(4-((4-(3-(3-tert-Butyl-1-p-tolyl-1H-pyrazol-5-yl)ureido)naphthalen-1-yloxy)methyl)pyridin-2-yl)-2-(2-(2-methoxyethoxy)ethylthio)acetamide], the IC50 – broadly, the concentration that inhibits the measured activity by half – was below 0.5 µM in series [1], below 0.01 µM in series [2] and below 0.5 µM in series [3]. The EC50 (in general, the concentration that produces a half-maximal response) in series [4] was below 0.01 µM. Further, the “MTT 4 hr” value in series [5] is recorded as “− (− <30%)”. In series [5], the “MTT 24 hr” value was “− (− <30%)”.
For `Cc1ccc(-n2nc(C(C)(C)C)cc2NC(=O)Nc2ccc(OCc3ccnc(NC(=O)CSCCN4CCOCC4)c3)c3ccccc23)cc1` [Example 31, N-(4-((4-(3-(3-tert-Butyl-1-p-tolyl-1H-pyrazol-5-yl)ureido)naphthalen-1-yloxy)methyl)pyridin-2-yl)-2-(2-morpholinoethylthio)acetamide], the results for the IC50 in series [1], in series [2] and in series [3] were below 0.5 µM, below 0.01 µM and below 0.5 µM, respectively. Also, in series [4], the EC50 is below 0.01 µM. In series [5], the “MTT 4 hr” value was “− (− <30%)”. Moreover, the “MTT 24 hr” value in series [5] is given as “+ (+ >30% at 10 ug/ml)”.
With `Cc1ccc(-n2nc(C(C)(C)C)cc2NC(=O)Nc2ccc(OCc3ccnc(NC(=O)CS(=O)(=O)CCN4CCOCC4)c3)c3ccccc23)cc1` [Example 32, N-(4-((4-(3-(3-tert-Butyl-1-p-tolyl-1H-pyrazol-5-yl)ureido)naphthalen-1-yloxy)methyl)pyridin-2-yl)-2-(2-morpholinoethylsulfonyl)acetamide], the IC50 in series [1] is below 0.5 µM; in series [2] it was below 0.5 µM; in series [3], below 0.01 µM. Also, in series [4], the EC50 was below 0.01 µM. Further, the “MTT 4 hr” value in series [5] was “− (− <30%)”. Further, in series [5], the “MTT 24 hr” value is on record as “− (− <30%)”.
With `COCCN(CCOC)CC(=O)Nc1cc(COc2ccc(NC(=O)Nc3cc(C(C)(C)C)nn3-c3ccc(C)cc3)c3ccccc23)ccn1` [Example 33, 2-(Bis(2-methoxyethyl)amino)-N-(4-((4-(3-(3-tert-butyl-1-p-tolyl-1H-pyrazol-5-yl)ureido)naphthalen-1-yloxy)methyl)pyridin-2-yl)acetamide], the IC50 is below 5 µM in series [1], below 0.01 µM in series [2] and below 0.01 µM in series [3]. In addition, the EC50 in series [4] was below 0.01 µM. Further, the “MTT 4 hr” value in series [5] is “− (− <30%)”. For the same compound, the “MTT 24 hr” value in series [5] was “− (− <30%)”.
In the case of `COCC(=O)Nc1cc(OCCc2ccc(NC(=O)Nc3cc(C(C)(C)C)nn3-c3ccc(C)cc3)c3ccccc23)ccn1` [Example 43, N-(4-(2-(4-(3-(3-tert-butyl-1-p-tolyl-1H-pyrazol-5-yl)ureido)naphthalen-1-yl)ethoxy)pyridin-2-yl)-2-methoxyacetamide], the IC50 in series [1] is below 5 µM; in series [2], below 0.5 µM; in series [3], below 0.5 µM. Besides, the EC50 in series [4] is below 0.5 µM. In addition, the “MTT 4 hr” value in series [5] is reported as “− (− <30%)”. Also, in series [5], the “MTT 24 hr” value is listed as “− (− <30%)”.
Turning to `COCC(=O)Nc1cc(CC(C)Oc2ccc(NC(=O)Nc3cc(C(C)(C)C)nn3-c3ccc(C)cc3)c3ccccc23)ccn1` (centres unmarked) [Example 46, N-(4-(2-(4-(3-(3-tert-Butyl-1-p-tolyl-1H-pyrazol-5-yl)ureido)naphthalen-1-yloxy)propyl)pyridin-2-yl)-2-methoxyacetamide], the IC50 in series [1] is above 5 µM; in series [2] it was below 0.5 µM; in series [3], below 0.5 µM. Moreover, in series [4], the EC50 is below 0.5 µM. The “MTT 4 hr” value in series [5] is “− (− <30%)”. Also, in series [5], the “MTT 24 hr” value is on record as “− (− <30%)”.
`COCC(=O)Nc1cc(C(C)COc2ccc(NC(=O)Nc3cc(C(C)(C)C)nn3-c3ccc(C)cc3)c3ccccc23)ccn1` (centres unmarked) [Example 47, N-(4-(1-(4-(3-(3-tert-Butyl-1-p-tolyl-1H-pyrazol-5-yl)ureido)naphthalen-1-yloxy)propan-2-yl)pyridin-2-yl)-2-methoxyacetamide]: the IC50 in series [1] is above 5 µM; in series [2], below 0.01 µM; in series [3], below 0.5 µM. Also, the EC50 in series [4] is below 0.01 µM. The “MTT 4 hr” value in series [5] was “− (− <30%)”. For the same compound, in series [5], the “MTT 24 hr” value is given as “− (− <30%)”.
As for `COCC(=O)Nc1cc(C(C)(C)COc2ccc(NC(=O)Nc3cc(C(C)(C)C)nn3-c3ccc(C)cc3)c3ccccc23)ccn1` [Example 48, N-(4-(1-(4-(3-(3-tert-Butyl-1-p-tolyl-1-pyrazol-5-yl)ureido)naphthalen-1-yloxy)-2-methylpropan-2-yl)pyridin-2-yl)-2-methoxyacetamide], the IC50 is above 5 µM in series [1], below 0.5 µM in series [2] and below 0.5 µM in series [3]. For the same compound, in series [4], the EC50 is below 0.5 µM. In addition, the “MTT 4 hr” value in series [5] is “− (− <30%)”. For the same compound, the “MTT 24 hr” value in series [5] was “− (− <30%)”.
Turning to `COCC(=O)Nc1cc(COc2ccc(NC(=O)Nc3cc(C(C)(C)C)nn3-c3ccc(CO)cc3)c3ccccc23)ccn1` [Example 49, N-(4-((4-(3-(3-tert-Butyl-1-(4-(hydroxymethyl)phenyl)-1H-pyrazol-5-yl)ureido)naphthalen-1-yloxy)methyl)pyridin-2-yl)-2-methoxyacetamide], the IC50 in series [1] was below 0.5 µM; in series [2], below 0.5 µM; in series [3], below 0.01 µM. Besides, in series [4], the EC50 is below 0.01 µM. Also, the “MTT 4 hr” value in series [5] is “− (− <30%)”. The “MTT 24 hr” value in series [5] was “+ (+ >30% at 10 ug/ml)”.
`COCC(=O)Nc1nccc(COc2ccc(NC(=O)Nc3cc(C(C)(C)C)nn3-c3ccc(C)cc3)c3ccccc23)n1` [Example 50, N-(4-((4-(3-(3-tert-Butyl-1-p-tolyl-1H-pyrazol-5-yl)ureido)naphthalen-1-yloxy)methyl)pyrimidin-2-yl)-2-methoxyacetamide]: the IC50 in series [1] is above 5 µM; in series [2] it was below 0.5 µM; in series [3], below 0.01 µM. The EC50 in series [4] is below 0.01 µM. Also, the “MTT 4 hr” value in series [5] is listed as “− (− <30%)”. For the same compound, the “MTT 24 hr” value in series [5] is “− (− <30%)”.
As for `CCC(=O)O[C@]1(C(=O)SCF)[C@H](C)C[C@H]2[C@@H]3C[C@H](F)C4=CC(=O)C=C[C@]4(C)[C@@]3(F)[C@@H](O)C[C@@]21C` [fluticasone propionate], the “effect on ovalbumin-mediated lung function changes” value in series [6] is on record as “inhibited”. In addition, the “inhibition of neutrophil or macrophage accumulation into airways” value in series [7] is “did not inhibit”.
